Reference: patent publication US20230295109A1, “PYRIDINONE COMPOUNDS FOR THE TREATMENT OF AUTOIMMUNE DISEASE” (F. Hoffmann-La Roche AG, priority 2020, published 2023)

Target: T1, TLR9 (Homo sapiens, UniProt Q9NR96)
T1 sequence (Q9NR96 26-1032): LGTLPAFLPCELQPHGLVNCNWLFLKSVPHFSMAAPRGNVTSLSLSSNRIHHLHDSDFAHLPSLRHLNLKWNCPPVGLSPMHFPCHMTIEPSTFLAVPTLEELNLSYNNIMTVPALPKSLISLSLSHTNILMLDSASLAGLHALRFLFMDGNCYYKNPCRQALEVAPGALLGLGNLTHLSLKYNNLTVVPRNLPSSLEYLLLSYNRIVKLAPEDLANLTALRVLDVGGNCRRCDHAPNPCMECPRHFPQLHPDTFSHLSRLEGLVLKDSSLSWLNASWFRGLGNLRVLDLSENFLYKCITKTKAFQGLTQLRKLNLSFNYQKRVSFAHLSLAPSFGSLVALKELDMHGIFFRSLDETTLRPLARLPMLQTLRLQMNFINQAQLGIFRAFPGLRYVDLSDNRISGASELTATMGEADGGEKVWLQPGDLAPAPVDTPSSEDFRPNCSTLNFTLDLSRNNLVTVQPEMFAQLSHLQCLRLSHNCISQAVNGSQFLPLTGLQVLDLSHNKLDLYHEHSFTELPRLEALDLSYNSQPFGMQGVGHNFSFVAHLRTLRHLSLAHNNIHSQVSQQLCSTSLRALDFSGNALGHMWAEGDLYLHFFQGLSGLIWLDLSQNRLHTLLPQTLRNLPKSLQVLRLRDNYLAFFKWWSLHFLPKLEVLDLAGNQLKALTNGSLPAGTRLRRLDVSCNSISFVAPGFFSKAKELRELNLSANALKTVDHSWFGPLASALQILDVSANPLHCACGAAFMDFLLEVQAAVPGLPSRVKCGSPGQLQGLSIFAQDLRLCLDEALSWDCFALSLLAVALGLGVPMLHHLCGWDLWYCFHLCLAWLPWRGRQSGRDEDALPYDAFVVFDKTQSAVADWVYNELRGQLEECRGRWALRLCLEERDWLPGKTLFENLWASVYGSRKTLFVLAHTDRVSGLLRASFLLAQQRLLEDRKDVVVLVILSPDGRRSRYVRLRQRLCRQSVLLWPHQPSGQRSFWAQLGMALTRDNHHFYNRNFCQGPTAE
Test: HEK293-Blue-hTLR-9 cells assay
Type: cell-based
Parameters: host or cells: HEK293 (HEK-Blue hTLR9)
Settings: HEK293-Blue-hTLR9 cells, ODN2006 stimulation, 20 hrs, SEAP reporter; read-out: HEK/hTLR9 IC50
Text: A stable HEK293-Blue-hTLR-9 cell line was purchased from InvivoGen (Cat.#: hkb-htlr9, San Diego, California, USA). These cells were originally designed for studying the stimulation of human TLR9 by monitoring the activation of NF-κB. A SEAP (secreted embryonic alkaline phosphatase) reporter gene was placed under the control of the IFN-β minimal promoter fused to five NF-κB and AP-1-binding sites. The SEAP was induced by activating NF-κB and AP-1 via stimulating HEK-Blue hTLR9 cells with TLR9 ligands. Therefore the reporter expression was declined by TLR9 antagonist under the stimulation of a ligand, such as ODN2006 (Cat.#: tlrl-2006-1, Invivogen, San Diego, California, USA), for incubation of 20 hrs. The cell culture supernatant SEAP reporter activity was determined using QUANTI-Blue™ kit (Cat.#: rep-qb1, Invivogen, San Diego, California, USA) at a wavelength of 640 nm, a detection medium that turns purple or blue in the presence of alkaline phosphatase.
HEK293-Blue-hTLR9 cells were incubated at a density of 250,000~450,000 cells/mL in a volume of 170 µL in a 96-well plate in Dulbecco’s Modified Eagle’s medium (DMEM) containing 4.5 g/L glucose, 50 U/mL penicillin, […], […], 2 mM L-glutamine, 10% (v/v) heat-inactivated fetal bovine serum with addition of 20 µL test compound in a serial dilution in the presence of final DMSO at 1% and 10 µL of 20uM ODN2006 in above DMEM, perform incubation under 37° C. in a CO2 incubator for 20 hrs. Then 20 µL of the supernatant from each well was incubated with 180 µL Quanti-blue substrate solution at 37° C. for 2 h and the absorbance was read at 620 \~655 nm using a spectrophotometer. The signaling pathway that TLR9 activation leads to downstream NF-κB activation has been widely accepted, and therefore similar reporter assay was modified for evaluating TLR9 antagonist.

| IC50 [nM] | Structure (SMILES) |
| --- | --- |
| 700 | CCc1nc(N2CCN(Cc3cnc(N4CC5(CNCCO5)C4)nc3)CC2)ccc1-c1cc(C)c(=O)n(C)c1 [Example 1, 5-[2-ethyl-6-[4-[[2-(5-oxa-2,8-diazaspiro[3.5]nonan-2-yl)pyrimidin-5-yl]methyl]piperazin-1-yl]-3-pyridyl]-1,3-dimethyl-pyridin-2-one] |
| 212 | CCc1nc(N2CCN(Cc3ccc(N4CC5(CNCCO5)C4)nc3)CC2)ccc1-c1cc(C)c(=O)n(C)c1 [Example 2, 5-[2-ethyl-6-[4-[[6-(5-oxa-2,8-diazaspiro[3.5]nonan-2-yl)-3 pyridyl]methyl]piperazin-1-yl]-3-pyridyl]-1,3-dimethyl-pyridin-2-one] |
| 621 | CCc1nc(N2CCN(Cc3cnc(N4CC(C)(N)C4)nc3)CC2)ccc1-c1cc(C)c(=O)n(C)c1 [Example 3, 5-[6-[4-[[2-(3-amino-3-methyl-azetidin-1-yl)pyrimidin-5-yl]methyl]piperazin-1-yl]-2-ethyl-3-pyridyl]-1,3-dimethyl-pyridin-2-one] |
| 318 | CCc1nc(N2CCN(Cc3cnc(N4CCOC[C@@H](N)C4)nc3)CC2)ccc1-c1cc(C)c(=O)n(C)c1 [Example 4, 5-[6-[4-[[2-[(6S)-6-amino-1,4-oxazepan-4-yl]pyrimidin-5-yl]methyl]piperazin-1-yl]-2-ethyl-3-pyridyl]-1,3-dimethyl-pyridin-2-one] |
| 54 | CCc1nc(N2CCN(Cc3ccc(N4CCNCC4)cc3)CC2)ccc1-c1cc(C)c(=O)n(C)c1 [Example 5, 5-[2-ethyl-6-[4-[(4-piperazin-1-ylphenyl)methyl]piperazin-1-yl]-3-pyridyl]-1,3-dimethyl-pyridin-2-one] |
| 198 | Cc1cc(-c2ccc(N3CCN(Cc4cnc(N5CC6(CNCCO6)C5)nc4)CC3)nc2C(C)C)cn(C)c1=O [Example 6, 5-[2-isopropyl-6-[4-[[2-(5-oxa-2,8-diazaspiro[3.5]nonan-2-yl)pyrimidin-5-yl]methyl]piperazin-1-yl]-3-pyridyl]-1,3-dimethyl-pyridin-2-one] |
| 143 | Cc1cc(-c2ccc(N3CCN(Cc4ccc(N5CCNCC5)cn4)CC3)nc2C(C)C)cn(C)c1=O [Example 7, 5-[2-isopropyl-6-[4-[(5-piperazin-1-yl-2-pyridyl)methyl]piperazin-1-yl]-3-pyridyl]-1,3-dimethyl-pyridin-2-one] |
| 176 | Cc1cc(-c2ccc(N3CCN(Cc4cnc(N5CCNCC5)cn4)CC3)nc2C(C)C)cn(C)c1=O [Example 8, 5-[2-isopropyl-6-[4-[(5-piperazin-1-ylpyrazin-2-yl)methyl]piperazin-1-yl]-3-pyridyl]-1,3-dimethyl-pyridin-2-one] |
| 183 | Cc1cc(-c2ccc(N3CCN(Cc4cnc(N5CCNCC5)nc4)CC3)nc2C(C)C)cn(C)c1=O [Example 9, 5-[2-isopropyl-6-[4-[(2-piperazin-1-ylpyrimidin-5-yl)methyl]piperazin-1-yl]-3-pyridyl]-1,3-dimethyl-pyridin-2-one] |
| 139 | Cc1cc(-c2ccc(N3CCN(Cc4cnc(N5CC(C)(N)C5)nc4)CC3)nc2C(C)C)cn(C)c1=O [Example 10, 5-[6-[4-[[2-(3-amino-3-methyl-azetidin-1-yl)pyrimidin-5-yl]methyl]piperazin-1-yl]-2-isopropyl-3-pyridyl]-1,3-dimethyl-pyridin-2-one] |
| 136 | Cc1cc(-c2ccc(N3CCN(Cc4ccc(N5CCNCC5)nc4)CC3)nc2C(C)C)cn(C)c1=O [Example 11, 5-[2-isopropyl-6-[4-[(6-piperazin-1-yl-3-pyridyl)methyl]piperazin-1-yl]-3-pyridyl]-1,3-dimethyl-pyridin-2-one] |
| 763 | Cc1cc(-c2ccc(N3CCN(Cc4ncc(N5CCNCC5)cn4)CC3)nc2C(C)C)cn(C)c1=O [Example 12, 5-[2-isopropyl-6-[4-[(5-piperazin-1-ylpyrimidin-2-yl)methyl]piperazin-1-yl]-3-pyridyl]-1,3-dimethyl-pyridin-2-one] |
| 111 | Cc1cc(-c2ccc(N3CCN(Cc4ccc(N5CCNCC5)cc4)CC3)nc2C(C)C)cn(C)c1=O [Example 13, 5-[2-isopropyl-6-[4-[(4-piperazin-1-ylphenyl)methyl]piperazin-1-yl]-3-pyridyl]-1,3-dimethyl-pyridin-2-one] |
| 143 | Cc1cc(-c2ccc(N3CCN(Cc4cccc(N5CCNCC5)c4)CC3)nc2C(C)C)cn(C)c1=O [Example 14, 5-[2-isopropyl-6-[4-[(3-piperazin-1-ylphenyl)methyl]piperazin-1-yl]-3-pyridyl]-1,3-dimethyl-pyridin-2-one] |
| 803 | Cc1cc(-c2ccc(N3CCN(c4ccc5c(n4)CCNC5)CC3)nc2C(C)C)cn(C)c1=O [Example 15, 5-[2-isopropyl-6-[4-(5,6,7,8-tetrahydro-1,6-naphthyridin-2-yl)piperazin-1-yl]-3-pyridyl]-1,3-dimethyl-pyridin-2-one] |
| 324 | Cc1cc(-c2ccc(N3CCN4CCN(c5ccc(N6CCNCC6)nc5)CC4C3)nc2C(C)C)cn(C)c1=O (stereo not shown) [Example 16, 5-[2-isopropyl-6-[8-(6-piperazin-1-yl-3-pyridyl)-3,4,6,7,9,9a-hexahydro-1H-pyrazino[1,2-a]pyrazin-2-yl]-3-pyridyl]-1,3-dimethyl-pyridin-2-one] |
| 68 | Cc1cc(-c2ccc(N3CCN(Cc4ccc(N5CCNCC5)cc4)CC3)nc2C(F)F)cn(C)c1=O [Example 17, 5-[2-(difluoromethyl)-6-[4-[(4-piperazin-1-ylphenyl)methyl]piperazin-1-yl]-3-pyridyl]-1,3-dimethyl-pyridin-2-one] |
| 798 | Cc1cc(-c2ccc(N3CCC(N4CCNCC4)CC3)nc2C(C)C)cn(C)c1=O [Example 18, 5-[2-isopropyl-6-(4-piperazin-1-yl-1-piperidyl)-3-pyridyl]-1,3-dimethyl-pyridin-2-one] |
| 833 | CCc1nc(N2CCN3CCN(c4cnc(N5CC6(CNCCO6)C5)nc4)CC3C2)ccc1-c1cc(C)c(=O)n(C)c1 (stereo not shown) [Example 19, 5-[2-ethyl-6-[2-[2-(5-oxa-2,8-diazaspiro[3.5]nonan-2-yl)pyrimidin-5-yl]-3,4,6,7,9,9a-hexahydro-1H-pyrazino[1,2-a]pyrazin-8-yl]-3-pyridyl]-1,3-dimethyl-pyridin-2-one] |
